According to patent US20060094721A9, “Sulfonamides as potassium channel blockers” (Icagen, Inc., priority 2002, published 2006):

What follows are compounds tested against T1, intermediate conductance, calcium activated potassium channel (Gardos channel) in red blood cells (Homo sapiens, UniProt O15554) (assay: 86Rb flux assay for inhibition of the Gardos channel in red blood cells (Example 4)). Details: CaCl2 and A23187.
T1 construct: endogenous in cells; host or cells: red blood cells from heparinized whole blood
Assay type: cell-based
Method: Activities for selected compounds of the invention were determined using the assay set forth in Example 4, and are presented in Table 1.
Example 4 illustrates the use of a rubidium flux assay to determine the activity of the compounds of the invention.
Example 4 describes a bioassay for measuring the inhibition of a calcium activated potassium channel, the Gardos channel, in red blood cells by the compounds of the invention.
Heparinized whole blood was washed three times with Modified Flux Buffer (MFB: 140 mM NaCl; 5 mM KCl; 10 mM Tris; 0.1 mM EGTA; pH=7.4). Red blood cells (“RBCs”) at an approximate 10% hematocrit. Washed cells were then incubated for 3 hours with ^86Rb (5 μCi/mL). After this incubation period, the RBCs were washed three times with cold MFB. Washed ^86Rb loaded RBCs were then incubated with a test compound of the invention for 10 minutes. ^86Rb flux was then initiated by the addition of 10 μL/mL of a MFB solution containing 10 mM CaCl2 and 100 μM A23187, a calcium ionophore. This yielded a final concentration of 100 μM CaCl2 and […] A23187 n the incubation medium. Cells were incubated for 10 minutes, spun down and the supernatant was removed. Samples were counted in a Wallace Microbeta liquid scintillation counter by Cerenkov emission. Total RBC ^86Rb content was determined by lysing the RBCs with water and then precipitating protein using a 50:50 mixture of ethanol:chloroform. After a 20 minute microfuge spin, the aqueous and organic layers separated and the aqueous layer was removed and counted. Efflux is expressed as a percentage of the initial cell content of ^86Rb.

Structure (SMILES) | Activity (relative potencies in the intermediate conductance, calcium activated potassium channel blocker assay, IC50 class)
COC(=O)C1=C(NS(=O)(=O)c2cccc(C(F)(F)F)c2)CCCC1 [Compound 31, 2-(3-trifluoromethyl-benzenesulfonylamino)-cyclohex-1-enecarboxylic Acid Methyl Ester] | ++ (++ represents 2 μM < IC50 < 0.5 μM)
Cc1noc(-c2ccccc2NS(=O)(=O)c2cccc(C(F)(F)F)c2)n1 [Compound 82, N-[2-(3-methyl-[1,2,4]oxadiazol-5-yl)-phenyl]-3-trifluoromethyl-benzenesulfonamide] | ++ (++ represents 2 μM < IC50 < 0.5 μM)
COc1noc(-c2ccccc2NS(=O)(=O)c2cccc(C(F)(F)F)c2)n1 [Compound 83, N-[2-(3-methoxy-[1,2,4]oxadiazol-5-yl)-phenyl]-3-trifluoromethyl-benzenesulfonamide] | ++ (++ represents 2 μM < IC50 < 0.5 μM)

Results, then the compound that gave them:

Activity (relative potencies in the intermediate conductance, calcium activated potassium channel blocker assay, IC50 class) | Structure (SMILES)
++ (++ represents 2 μM < IC50 < 0.5 μM) | O=S(=O)(Nc1ccccc1-c1ncco1)c1cccc(C(F)(F)F)c1 [Compound 74, N-(2-Oxazol-2-yl-phenyl)-3-trifluoromethyl-benzenesulfonamide]
++ (++ represents 2 μM < IC50 < 0.5 μM) | COC(=O)c1ccccc1CS(=O)(=O)c1cccc(C(F)(F)F)c1 [Compound 95, 2-(3-Trifluoromethyl-benzenesulfonylmethyl)-benzoic Acid Methyl Ester]
+ (+ Represents 10 μM < IC50 < 2 μM) | COC(=O)c1ccccc1CSc1cccc(C(F)(F)F)c1 [Compound 96, 2-(3-Trifluoromethyl-phenylsulfanylmethyl)-benzoic Acid Methyl Ester]

Same assay, conditions: CaCl2 and A23187, read-out: Activity (relative potencies in the intermediate conductance, calcium activated potassium channel blocker assay, IC50 class)

IC50 [nM] | Structure (SMILES)
< 500 | COc1ccc(NS(=O)(=O)c2cccc(C(F)(F)F)c2)c(-c2ncco2)c1 [Compound 40, N-(4-Methoxy-2-oxazol-2-yl-phenyl)-3-trifluoromethyl-benzenesulfonamide]
< 500 | COc1cc(NS(=O)(=O)c2cccc(C(F)(F)F)c2)c(-c2nc(C)no2)cc1OC [Compound 41, N-[4,5-dimethoxy-2-(3-methyl-[1,2,4]oxadiazol-5-yl)-phenyl]-3-trifluoromethyl-benzenesulfonamide]
< 500 | O=S(=O)(Nc1ccccc1-c1ccco1)c1cccc(C(F)(F)F)c1 [Compound 76, N-(2-furan-2-yl-phenyl)-3-trifluoromethyl-benzenesulfonamide]
